Non-standard residues stand in square brackets, D forms with d. Residues, ends and D or L forms follow the SMILES beside them. *: point of attachment. Tic = O=C(O)[C@@H]1Cc2ccccc2CN1; Abu = CC[C@H](N)C(=O)O; Cbz = O=C(OCc1ccccc1)*; OtBu = CC(C)(C)O*

The IC50 is the midpoint of a concentration-inhibition curve.

The experiment concerns the target T1, Calpain-1 catalytic subunit (Homo sapiens, UniProt P07384).
T1 sequence (P07384 whole entry): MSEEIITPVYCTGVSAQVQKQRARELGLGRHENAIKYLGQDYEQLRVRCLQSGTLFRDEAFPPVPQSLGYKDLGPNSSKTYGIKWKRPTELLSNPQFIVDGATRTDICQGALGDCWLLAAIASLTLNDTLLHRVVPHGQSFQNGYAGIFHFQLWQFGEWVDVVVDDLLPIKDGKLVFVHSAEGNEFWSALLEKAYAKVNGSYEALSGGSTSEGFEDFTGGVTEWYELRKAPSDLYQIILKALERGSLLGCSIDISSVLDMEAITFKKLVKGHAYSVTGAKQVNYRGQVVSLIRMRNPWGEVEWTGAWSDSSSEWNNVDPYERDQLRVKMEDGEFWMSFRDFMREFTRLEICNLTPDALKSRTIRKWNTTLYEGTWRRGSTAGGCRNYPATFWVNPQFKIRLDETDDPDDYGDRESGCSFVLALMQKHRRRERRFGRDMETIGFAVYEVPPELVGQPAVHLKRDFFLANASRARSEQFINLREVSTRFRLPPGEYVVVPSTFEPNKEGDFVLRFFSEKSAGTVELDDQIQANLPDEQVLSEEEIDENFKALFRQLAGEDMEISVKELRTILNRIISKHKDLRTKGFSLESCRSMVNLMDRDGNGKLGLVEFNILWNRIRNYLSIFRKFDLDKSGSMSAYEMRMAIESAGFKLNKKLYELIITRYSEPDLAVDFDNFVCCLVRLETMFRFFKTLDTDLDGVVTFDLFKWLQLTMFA
Briefly: Inhibitory activity evaluated against recombinant human calpain 1.
In the case of `CC(C)C[C@@H](C=O)NC(=O)[C@H](CC(C)C)NC(=O)[C@H](CC(C)C)NC(=O)[C@H](Cc1c[nH]cn1)NC(=O)OCc1ccccc1` (Cbz-HLLL-aldehyde), the concentration for half-maximal inhibition (IC50) was determined as 17 nM. As for `CC(C)C[C@H](NC(=O)OCc1ccccc1)C(=O)N[C@H](CC=O)Cc1ccccc1`, the IC50 is greater than 1000 nM. `CC(C)C[C@H](NC(=O)OCc1ccccc1)C(=O)NCCC=O`: the half-maximal inhibitory concentration (IC50) was greater than 10000 nM. Next, `CC(C)C[C@@H](C=O)NC(=O)[C@H](CC(C)C)NC(=O)[C@H](Cc1ccc(O)cc1)NC(=O)OCc1ccccc1` (Cbz-Tyr-Leu-Leu-aldehyde): 8 nM. Next, `CC(C)C[C@@H](C=O)NC(=O)[C@H](CC(C)C)NC(=O)[C@H](CCCCN)NC(=O)OCc1ccccc1` (Cbz-Lys-Leu-Leu-aldehyde): 20 nM. The result for `CC(C)C[C@@H](C=O)NC(=O)[C@H](C)NC(=O)[C@H](CC(C)C)NC(=O)OCc1ccccc1` (Cbz-Leu-Ala-Leu-aldehyde) reads 90 nM; that for `CC(=O)N[C@@H](CC(C)C)C(=O)N[C@@H](CC(C)C)C(=O)N[C@H](C=O)CCC(=O)OC(C)(C)C` (Ac-Leu-Leu-Glu(OtBu)-aldehyde), 1100 nM. On to `CSCC[C@@H](C=O)NC(=O)[C@H](CC(C)C)NC(=O)OCc1ccccc1` (Cbz-Leu-Met-aldehyde), for which the IC50 is 33 nM. Consider `CC(C)C[C@@H](C=O)NC(=O)[C@H](Cc1ccccc1)NC(=O)[C@@H](NC(=O)OCc1ccccc1)C(C)C` (Cbz-Val-Phe-Leu-aldehyde), for which the IC50 came to 31 nM.

Regarding `CC(C)C[C@@H](C=O)NC(=O)[C@H](CC(C)C)NC(=O)[C@@H]1Cc2ccccc2CN1C(=O)OCc1ccccc1` (Cbz-[Tic]-Leu-Leu-aldehyde), the IC50 stood at 15 nM.

As for `CC(C)C[C@H](NC(=O)OCc1ccccc1)C(=O)N[C@H](C=O)Cc1ccccc1` (Cbz-Leu-Phe-aldehyde), the IC50 was found to be 10 nM. As to `CC(C)C[C@@H](C=O)NC(=O)[C@H](CC(C)C)NC(=O)[C@H](Cc1ccccc1)NC(=O)OCc1ccccc1` (Cbz-Phe-Leu-Leu-aldehyde), the 50% inhibitory concentration (IC50) is 11 nM. The result for `CC(C)C[C@@H](C=O)NC(=O)[C@H](CC(C)C)NC(=O)OCc1ccc([N+](=O)[O-])cc1` reads 8 nM; that for `CCCC[C@H](NC(=O)OCc1ccccc1)C(=O)N[C@H](C=O)CC(C)C`, 33 nM; that for `CC(C)C[C@@H](C=O)NC(=O)[C@@H](NC(=O)OCc1ccccc1)C(C)C` (Cbz-Val-Leu-aldehyde), 29 nM. Next, `CC(C)C[C@@H](C=O)NC(=O)[C@H](CC(C)C)NC(=O)c1ccccc1C(=O)O`: greater than 1000 nM; `CC(C)C[C@@H](C=O)NC(=O)[C@H](CC(C)C)N(C)C(=O)OCc1ccccc1`: greater than 10000 nM; `CC(C)C[C@@H](C=O)NC(=O)[C@H](CC(C)C)NC(=O)[C@H](CC(C)C)NC(=O)[C@H](C)NC(=O)OCc1ccccc1` (Cbz-ALLL-aldehyde): 6 nM. The result for `CC(C)C[C@@H](C=O)NC(=O)[C@H](Cc1ccc(O)cc1)NC(=O)OCc1ccccc1` (Cbz-Tyr-Leu-aldehyde) reads greater than 1000 nM; that for `CC(C)C[C@@H](C=O)NC(=O)CCNC(=O)OCc1ccccc1`, greater than 10000 nM; that for `CC(=O)N[C@@H](CC(C)C)C(=O)N[C@@H](CC(C)C)C(=O)NCC=O` (Ac-Leu-Leu-Gly-aldehyde), roughly 1000 nM.

Turning to `CC(=O)N[C@@H](CC(C)C)C(=O)N[C@@H](CC(C)C)C(=O)N[C@H](C=O)Cc1ccccc1` (Ac-Leu-Leu-Phe-aldehyde), the IC50 was determined as 32 nM. The result for `CC(C)C[C@@H](C=O)NC(=O)[C@H](CO)NC(=O)OCc1ccccc1` (Cbz-Ser-Leu-aldehyde) reads 530 nM; that for `CC(C)C[C@H](NC(=O)OCc1ccccc1)C(=O)NCC=O` (Cbz-Leu-Gly-aldehyde), 300 nM; that for `CC(C)C[C@H](NC(=O)OCc1ccccc1)C(=O)N[C@@H](C)C=O` (Cbz-Leu-Ala-aldehyde), 120 nM. The result for `CC[C@@H](C=O)NC(=O)[C@H](CC(C)C)NC(=O)OCc1ccccc1` (Cbz-Leu-[Abu]-aldehyde) reads 10 nM.
